The results in this text go back to publication PMC2661369, “The Signal Peptide of Staphylococcus aureus Panton Valentine Leukocidin LukS Component Mediates Increased Adhesion to Heparan Sulfates” (PLoS ONE, 2009).

The format of series [1] is physicochemical. Conditions: purified synthetic peptide. The source says:
To gain insight into the structure and lipotropic properties of the LukS-PV and LukF-PV signal peptides, the solubility and conformation of the corresponding purified synthetic peptides were examined under various stabilizing conditions by using either cosolvents (TFE: water mixtures, SDS) that are very useful tools for probing the propensity of peptides for secondary structure formation ([11], [12], and references therein), or membrane mimetic media including lysolipid (lysophosphatidyl choline, LPC), and detergents (DM, LPC and DPC). […] TFE is known to solubilize hydrophobic peptides as monomers and to stabilize the folding of peptidic sequences with an intrinsic propensity to adopt an α-helical structure. […] Various CD deconvolution methods used indicate a predominant α-helix content ranging from 64 to 77% in SDS and in TFE 50% for LukS-PV signal peptide, but only of about 40% for LukF-PV signal peptide in both media. […] These findings are consistent with the computer prediction that this peptide could easily aggregate (score of 0.8 with Zyggregator [13]). […] Taken together, these analyses indicate that after its processing by the signal peptidase, the LukS-PV signal peptide could readily leave the membrane translocon context and incorporate to the cytosolic or the extracellular aqueous environment.

The next series deals with ECM components. Type of series: cell-based, Staphylococcus aureus. Conditions: constructs expressed in LUG960 (RN6390 in b7), P-luk-PV promoter; ECM proteins 5 µg/mL, absorbance at 540 nm.
Series [2] deals with Panton Valentine Leukocidin. The series can be described thus: Quantification of Panton Valentine Leukocidin production by ELISA. It is filed as cell-based, Staphylococcus aureus. The settings on record: supernatant after 24 h of culture, mean±SD, in duplicate. The method, then: The level of PVL production in the supernatant after 24 h of staphylococcal culture was determined in duplicate by using an ELISA method as described previously.
The level of PVL production in the supernatant after 24h of culture was determined in duplicate by using an ELISA method as described previously.
(In general: An ELISA detects its analyte on a solid surface through an enzyme-linked reagent.)

A further series concerns matrix protein. The series can be described thus: Effect of heparinase III digestion of ECM proteins on bacterial adhesion. Type of series: cell-based, Staphylococcus aureus. The settings on record: increasing concentrations added to coated wells, 1 h at room temperature, before adhesion assay. The procedure: Figure 4 Inhibition of adhesion to collagen IV by heparinase. Isogenic strains of Staphylococcus aureus examined for their binding capacity (Y-axis, absorbance reading at 540 nm) to collagen IV (Sigma) coated on 96-well plates, at concentrations of 5 µg/mL. Heparinase III was added at increasing concentrations (X-axis) to collagen IV (Sigma) before the adhesion assay. Parental (LUG960) indicates the genetic background in which the genetic modifications were made; LukS-PV SP, parental carrying a plasmid encoding the LukS-PV signal peptide. The vertical lines indicate the standard deviations.
To test the effect of digestion of ECM proteins with heparinase, increasing concentrations of heparinase III (Sigma) were added to laminin, elastin and type V, IV, I collagens (Sigma) coated wells, and incubated for 1 h at room temperature. After treatment, the wells were washed with 200 µL PBS 3 times, blocked with 200 µL of 0.2% BSA in PBS at 4°C for 2 h, and used in the adhesion assay.

Where no end group is shown, it is not given here.

With “MVKKRLLAATLSLGIITPIATSFHESKA [LukS-PV signal peptide]”, the solubility in water entry in series [1] is listed as “largely soluble in water”.
Consider “LukS-PV ΔSP: plasmid encoding LukS-PV without signal peptide (MVKKRLLAATLSLGIITPIATSFHESKA)”, for which, in the series on ECM components, the “adhesion phenotype of expressing strain” value is “basal level of attachment”. In series [2], this molecule displayed a PVL levels of 2.39 ± 0.04 µg/mL.

B1: heparinase III: heparinase III (Sigma) (protein, UniProt Q59289 25-659, looked up)
Heparin-sulfate lyase: QSSSITRKDFDHINLEYSGLEKVNKAVAAGNYDDAAKALLAYYREKSKAREPDFSNAEKPADIRQPIDKVTREMADKALVHQFQPHKGYGYFDYGKDINWQMWPVKDNEVRWQLHRVKWWQAMALVYHATGDEKYAREWVYQYSDWARKNPLGLSQDNDKFVWRPLEVSDRVQSLPPTFSLFVNSPAFTPAFLMEFLNSYHQQADYLSTHYAEQGNHRLFEAQRNLFAGVSFPEFKDSPRWRQTGISVLNTEIKKQVYADGMQFELSPIYHVAAIDIFLKAYGSAKRVNLEKEFPQSYVQTVENMIMALISISLPDYNTPMFGDSWITDKNFRMAQFASWARVFPANQAIKYFATDGKQGKAPNFLSKALSNAGFYTFRSGWDKNATVMVLKASPPGEFHAQPDNGTFELFIKGRNFTPDAGVFVYSGDEAIMKLRNWYRQTRIHSTLTLDNQNMVITKARQNKWETGNNLDVLTYTNPSYPNLDHQRSVLFINKKYFLVIDRAIGEATGNLGVHWQLKEDSNPVFDKTKNRVYTTYRDGNNLMIQSLNADRTSLNEEEGKVSYVYNKELKRPAFVFEKPKKNAGTQNFVSIVYPYDGQKAPEISIRENKGNDFEKGKLNLTLTINGKQQLVLVP
Take B1: in the series with matrix protein, the “effect of heparinase on bacterial adhesion” value is reported as “the bacterial adhesion decreased in a dose-dependent manner”.
